From PubChem BioAssay (NCI)
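How tested: cells in 96-well plates exposed to compound for 48 hours at five concentrations. GI50 marks 50% less growth. TGI: concentration producing complete growth inhibition.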

Experiments:
Test in all cases: NCI-60 cell line screen, 48 h
RPMI-8226 leukemia = tested on: RPMI-8226 leukemia
UACC-257 melanoma = tested on: UACC-257 melanoma
HOP-62 NSCLC = tested on: HOP-62 NSCLC
SW-620 colon = tested on: SW-620 colon
SF-268 CNS = tested on: SF-268 CNS
A498 renal = tested on: A498 renal
MDA-MB-231 breast = tested on: MDA-MB-231 breast
ACHN renal = tested on: ACHN renal
NCI-H460 lung = tested on: NCI-H460 lung
HL-60(TB) leukemia = tested on: HL-60(TB) leukemia
OVCAR-8 ovarian = tested on: OVCAR-8 ovarian
EKVX NSCLC = tested on: EKVX NSCLC
CAKI-1 renal = tested on: CAKI-1 renal
786-0 renal = tested on: 786-0 renal
SF-539 CNS = tested on: SF-539 CNS
HS 578T breast = tested on: HS 578T breast
NCI-H23 lung = tested on: NCI-H23 lung
RXF 393 renal = tested on: RXF 393 renal
U251 CNS = tested on: U251 CNS
BT-549 breast = tested on: BT-549 breast
OVCAR-4 ovarian = tested on: OVCAR-4 ovarian
SK-OV-3 ovarian = tested on: SK-OV-3 ovarian
DU-145 prostate = tested on: DU-145 prostate
UACC-62 melanoma = tested on: UACC-62 melanoma
SK-MEL-5 melanoma = tested on: SK-MEL-5 melanoma
MALME-3M melanoma = tested on: MALME-3M melanoma
HCC-2998 colon = tested on: HCC-2998 colon
HCT-116 colon = tested on: HCT-116 colon
HT29 colon = tested on: HT29 colon
MDA-MB-435 = tested on: MDA-MB-435
MOLT-4 leukemia = tested on: MOLT-4 leukemia
T-47D breast = tested on: T-47D breast
SN12C renal = tested on: SN12C renal
SNB-19 CNS = tested on: SNB-19 CNS
K-562 leukemia = tested on: K-562 leukemia
LOX IMVI melanoma = tested on: LOX IMVI melanoma
SK-MEL-28 melanoma = tested on: SK-MEL-28 melanoma
TK-10 renal = tested on: TK-10 renal
SNB-75 CNS = tested on: SNB-75 CNS
SF-295 CNS = tested on: SF-295 CNS
UO-31 renal = tested on: UO-31 renal
SK-MEL-2 melanoma = tested on: SK-MEL-2 melanoma
NCI/ADR-RES ovarian = tested on: NCI/ADR-RES ovarian
HCT-15 colon = tested on: HCT-15 colon
NCI-H522 lung = tested on: NCI-H522 lung
COLO 205 colon = tested on: COLO 205 colon
CCRF-CEM leukemia = tested on: CCRF-CEM leukemia
M14 melanoma = tested on: M14 melanoma
MCF7 breast = tested on: MCF7 breast
KM12 colon = tested on: KM12 colon
OVCAR-5 ovarian = tested on: OVCAR-5 ovarian
HOP-92 NSCLC = tested on: HOP-92 NSCLC
PC-3 prostate = tested on: PC-3 prostate
NCI-H226 lung = tested on: NCI-H226 lung
IGROV1 ovarian = tested on: IGROV1 ovarian
OVCAR-3 ovarian = tested on: OVCAR-3 ovarian

Q: How did the GI50 (RPMI-8226 leukemia) turn out when `COC(=O)c1ccc2c(c1)C(=O)c1c-2n(CCCN=[N+]=[N-])c(=O)c2cc([N+](=O)[O-])ccc12` was run?
A: 63.3 µM

Q: And the TGI (RPMI-8226 leukemia)?
A: > 100 µM

Q: And the GI50 (UACC-257 melanoma)?
A: > 100 µM

Q: And the TGI (UACC-257 melanoma)?
A: > 100 µM

Q: What about the GI50 (HOP-62 NSCLC) of the same compound?
A: 25.8 µM

Q: What about the TGI (HOP-62 NSCLC) of the same compound?
A: 67.5 µM

Q: What about the GI50 (SW-620 colon) of the same compound?
A: > 100 µM

Q: What about the TGI (SW-620 colon) of the same compound?
A: > 100 µM

Q: What about the GI50 (SF-268 CNS) of the same compound?
A: 17.3 µM

Q: And the TGI (SF-268 CNS)?
A: > 100 µM

Q: And the GI50 (A498 renal)?
A: > 100 µM

Q: What about the TGI (A498 renal) of the same compound?
A: > 100 µM

Q: What about the GI50 (MDA-MB-231 breast) of the same compound?
A: 58 µM

Q: And the TGI (MDA-MB-231 breast)?
A: > 100 µM

Q: What about the GI50 (ACHN renal) of the same compound?
A: 13 µM

Q: What about the TGI (ACHN renal) of the same compound?
A: 28.7 µM

Q: What about the GI50 (NCI-H460 lung) of the same compound?
A: 38.1 µM

Q: What about the TGI (NCI-H460 lung) of the same compound?
A: > 100 µM

Q: And the GI50 (HL-60(TB) leukemia)?
A: > 100 µM

Q: What about the TGI (HL-60(TB) leukemia) of the same compound?
A: > 100 µM

Q: And the GI50 (OVCAR-8 ovarian)?
A: > 100 µM

Q: What about the TGI (OVCAR-8 ovarian) of the same compound?
A: > 100 µM

Q: What about the GI50 (EKVX NSCLC) of the same compound?
A: 83.5 µM

Q: And the TGI (EKVX NSCLC)?
A: > 100 µM

Q: And the GI50 (CAKI-1 renal)?
A: > 100 µM

Q: And the TGI (CAKI-1 renal)?
A: > 100 µM

Q: What about the GI50 (786-0 renal) of the same compound?
A: 25.1 µM

Q: And the TGI (786-0 renal)?
A: 79 µM

Q: What about the GI50 (SF-539 CNS) of the same compound?
A: 53.1 µM

Q: And the TGI (SF-539 CNS)?
A: > 100 µM

Q: And the GI50 (HS 578T breast)?
A: 42.6 µM

Q: And the TGI (HS 578T breast)?
A: > 100 µM

Q: And the GI50 (NCI-H23 lung)?
A: 60 µM

Q: What about the TGI (NCI-H23 lung) of the same compound?
A: > 100 µM

Q: And the GI50 (RXF 393 renal)?
A: 37.3 µM

Q: What about the TGI (RXF 393 renal) of the same compound?
A: > 100 µM

Q: And the GI50 (U251 CNS)?
A: 18 µM

Q: And the TGI (U251 CNS)?
A: 48.8 µM

Q: And the GI50 (BT-549 breast)?
A: 24.1 µM

Q: And the TGI (BT-549 breast)?
A: 69.6 µM

Q: What about the GI50 (OVCAR-4 ovarian) of the same compound?
A: > 100 µM

Q: And the TGI (OVCAR-4 ovarian)?
A: > 100 µM

Q: What about the GI50 (SK-OV-3 ovarian) of the same compound?
A: 35.3 µM

Q: What about the TGI (SK-OV-3 ovarian) of the same compound?
A: > 100 µM

Q: And the GI50 (DU-145 prostate)?
A: 70.9 µM

Q: And the TGI (DU-145 prostate)?
A: > 100 µM

Q: What about the GI50 (UACC-62 melanoma) of the same compound?
A: 37.2 µM

Q: What about the TGI (UACC-62 melanoma) of the same compound?
A: > 100 µM

Q: And the GI50 (SK-MEL-5 melanoma)?
A: > 100 µM

Q: What about the TGI (SK-MEL-5 melanoma) of the same compound?
A: > 100 µM

Q: And the GI50 (MALME-3M melanoma)?
A: 63 µM

Q: And the TGI (MALME-3M melanoma)?
A: > 100 µM

Q: What about the GI50 (HCC-2998 colon) of the same compound?
A: > 100 µM

Q: And the TGI (HCC-2998 colon)?
A: > 100 µM

Q: What about the GI50 (HCT-116 colon) of the same compound?
A: 47.4 µM

Q: What about the TGI (HCT-116 colon) of the same compound?
A: > 100 µM

Q: And the GI50 (HT29 colon)?
A: > 100 µM

Q: And the TGI (HT29 colon)?
A: > 100 µM

Q: What about the GI50 (MDA-MB-435) of the same compound?
A: > 100 µM

Q: And the TGI (MDA-MB-435)?
A: > 100 µM

Q: What about the GI50 (MOLT-4 leukemia) of the same compound?
A: 30.2 µM

Q: And the TGI (MOLT-4 leukemia)?
A: > 100 µM

Q: What about the GI50 (T-47D breast) of the same compound?
A: > 100 µM

Q: And the TGI (T-47D breast)?
A: > 100 µM

Q: What about the GI50 (SN12C renal) of the same compound?
A: > 100 µM

Q: What about the TGI (SN12C renal) of the same compound?
A: > 100 µM

Q: What about the GI50 (SNB-19 CNS) of the same compound?
A: 47.4 µM

Q: And the TGI (SNB-19 CNS)?
A: > 100 µM

Q: What about the GI50 (K-562 leukemia) of the same compound?
A: 48 µM

Q: And the TGI (K-562 leukemia)?
A: > 100 µM

Q: What about the GI50 (LOX IMVI melanoma) of the same compound?
A: 61.6 µM

Q: And the TGI (LOX IMVI melanoma)?
A: > 100 µM

Q: What about the GI50 (SK-MEL-28 melanoma) of the same compound?
A: > 100 µM

Q: And the TGI (SK-MEL-28 melanoma)?
A: > 100 µM

Q: And the GI50 (TK-10 renal)?
A: 29.6 µM

Q: What about the TGI (TK-10 renal) of the same compound?
A: 68.6 µM

Q: What about the GI50 (SNB-75 CNS) of the same compound?
A: 20.5 µM

Q: What about the TGI (SNB-75 CNS) of the same compound?
A: 40.8 µM

Q: And the GI50 (SF-295 CNS)?
A: 59.8 µM

Q: And the TGI (SF-295 CNS)?
A: > 100 µM

Q: And the GI50 (UO-31 renal)?
A: > 100 µM

Q: What about the TGI (UO-31 renal) of the same compound?
A: > 100 µM

Q: And the GI50 (SK-MEL-2 melanoma)?
A: 27 µM

Q: And the TGI (SK-MEL-2 melanoma)?
A: 82.5 µM

Q: And the GI50 (NCI/ADR-RES ovarian)?
A: > 100 µM

Q: What about the TGI (NCI/ADR-RES ovarian) of the same compound?
A: > 100 µM

Q: And the GI50 (HCT-15 colon)?
A: > 100 µM

Q: And the TGI (HCT-15 colon)?
A: > 100 µM

Q: What about the GI50 (NCI-H522 lung) of the same compound?
A: 34.3 µM

Q: What about the TGI (NCI-H522 lung) of the same compound?
A: > 100 µM

Q: What about the GI50 (COLO 205 colon) of the same compound?
A: > 100 µM

Q: And the TGI (COLO 205 colon)?
A: > 100 µM

Q: And the GI50 (CCRF-CEM leukemia)?
A: 42.2 µM

Q: And the TGI (CCRF-CEM leukemia)?
A: > 100 µM

Q: And the GI50 (M14 melanoma)?
A: > 100 µM

Q: What about the TGI (M14 melanoma) of the same compound?
A: > 100 µM

Q: What about the GI50 (MCF7 breast) of the same compound?
A: > 100 µM

Q: What about the TGI (MCF7 breast) of the same compound?
A: > 100 µM

Q: And the GI50 (KM12 colon)?
A: > 100 µM

Q: What about the TGI (KM12 colon) of the same compound?
A: > 100 µM

Q: What about the GI50 (OVCAR-5 ovarian) of the same compound?
A: > 100 µM

Q: What about the TGI (OVCAR-5 ovarian) of the same compound?
A: > 100 µM

Q: And the GI50 (HOP-92 NSCLC)?
A: 17.5 µM

Q: What about the TGI (HOP-92 NSCLC) of the same compound?
A: 53.3 µM

Q: What about the GI50 (PC-3 prostate) of the same compound?
A: > 100 µM

Q: What about the TGI (PC-3 prostate) of the same compound?
A: > 100 µM

Q: And the GI50 (NCI-H226 lung)?
A: > 100 µM

Q: And the TGI (NCI-H226 lung)?
A: > 100 µM

Q: And the GI50 (IGROV1 ovarian)?
A: 21 µM

Q: What about the TGI (IGROV1 ovarian) of the same compound?
A: > 100 µM

Q: And the GI50 (OVCAR-3 ovarian)?
A: > 100 µM

Q: What about the TGI (OVCAR-3 ovarian) of the same compound?
A: > 100 µM
